In publication PMC6679700 (International Journal of Nanomedicine, 2019):

Experiments:
[1] = Solubility of FK506 in water, MCE and MCE ME; assay type: physicochemical; conditions: menthol/camphor eutectic, ratio 3/1 (w/w)
[2] = cited from earlier work
TRPM8 = conditions: skin; cited from earlier work

| Structure (SMILES) | Solubility of FK506 in MCE [1] | Aqueous solubility [2] | Duration of cool sensation (TRPM8) |
| --- | --- | --- | --- |
| C=CC[C@@H]1/C=C(\C)C[C@H](C)C[C@H](OC)[C@H]2O[C@@](O)(C(=O)C(=O)N3CCCC[C@H]3C(=O)O[C@H](/C(C)=C/[C@@H]3CC[C@@H](O)[C@H](OC)C3)[C@H](C)[C@@H](O)CC1=O)[C@H](C)C[C@@H]2OC [FK506, Tacrolimus] | 136 mg/mL | 0.004 to 0.012 mg/mL | – |
| CC1CCC(C(C)C)C(O)C1 (stereo not drawn) [Menthol, menthol] | – | – | up to 70 mins |
